Measured values reported in patent US6825178B1, “Methods and products for treating pseudomonas infection” (The Brigham and Women's Hospital, Inc., priority 1996, dated 2004).
Marks after values point to notes of the source that are not given here.

Assays:
WI-38 cells = test: Inhibition of internalization of P. aeruginosa strain PAO1 into WI-38 cells; type: cell-based, human; conditions: strain PAO1, WI 38 cells, 1 nM peptide
Experimental: WI-38 (human diploid lung cell line, ATCC. no. CCL-75) and A549 cells (human lung carcinoma cells, ATCC no. CCL-185) were obtained from the ATCC and grown according to their instructions.
Bacterial ingestion assay. Cells were released from monolayers in tissue culture flasks by 5 min. of incubation with trypsin-versene mixture (BioWhitaker, Walkersville, Md.), washed, counted and seeded into 96-well tissue culture plates at 10^5 cells/well in supplemented F-12 medium and incubated at 37° C. in 5% CO2. Fresh cultures of P. aeruginosa grown overnight at 37° C. on a tryptic soy agar plate were suspended in supplemented F-12 medium to prepare the bacterial inoculum. Then 10^6 colony forming units (cfu) of the bacterial inoculum were added per well of 10^5 epithelial cells. […] Three to 9 replicates were obtained per point, and analyzed using analysis of variance (ANOVA) and the Fisher PLSD statistic to determine pairwise differences.
Inhibition of ingestion in the presence of membranes isolated from C127 cells, monoclonal antibodies to extracellular domains of CFTR, or synthetic peptides corresponding to the first or fourth extracellular domains of CFTR was evaluated by adding these materials to the bacteria prior to adding them directly into wells for evaluation of bacterial uptake. […]

[1] = test system: P. aeruginosa strain PAO1; test: Neonatal mouse model of infection, CFTR peptide added to bacterial inoculum; type: in vivo; conditions: 7-day old mice, 10 nM peptide added to PAO1 inoculum, intranasal, 24 hours after infection; for Median cfu (10th-90th percentile cfu) P. aeruginosa internalized per mg. lung tissue: gentamicin-exclusion
Experimental: Neonatal mouse model of infection. Seven-day old neonatal Balb/c mice were infected with ˜10^8 cfu of stain PAO1 delivered intranasally as described, with the addition of 10 nM of a synthetic peptide corresponding to either the first or fourth extracellular domains of CFTR to the bacterial inoculum. Twenty-four hours later 7 animals were killed, right and left lungs removed, weighed and dispersed into single cell suspensions by grinding through a fine-mesh wire screen. An aliquot was removed, Triton X-100 added to a final concentration of 0.5% to release intracellular bacteria and the total cfu of bacteria present in each lung determined. The remaining portion of the lung cell suspension was treated with 300 μg gentamicin/ml for 60 minutes to kill extracellular P. aeruginosa. The cells were then pelleted in a centrifuge (400×g, 10 minutes), washed twice in RPMI medium, and resuspended in 200 μl of 0.5% Triton X-100 to release intracellular bacteria that survived the gentamicin treatment. These suspensions were diluted and plated for bacterial enumeration. The cfu per milligram lung weight was calculated and differences among groups analyzed by nonparametric statistics (Mann-Whitney U test) due to outliers in some groups.
To confirm that binding and internalization of P. aeruginosa by the first predicted extracellular domain of CFTR is important in resistance to lung infection, 7-day old Balb/c mice were nasally inoculated with 10^8 cfu of P. aeruginosa stain PAO1 mixed with either 10 nM of the peptide corresponding to the first or fourth predicted extracellular domains of CFTR and the course of bacterial infection was followed for over 24 hours. […] Thus, inhibiting P. aeruginosa internalization by blocking the bacterial interaction with CFTR in the lung leads to increased bacterial counts in this tissue, indicating an important mechanism for clearance of P. aeruginosa from the lung following inhalation of these organisms.

[2] = listed as First extracellular domain
[3] = listed as first extracellular domain peptide
[4] = listed as Fourth extracellular domain

Sequence | Mean cfu (standard deviation) of P. aeruginosa internalized (WI-38 cells) | Median cfu (10th-90th percentile cfu) P. aeruginosa internalized per mg. lung tissue [1, 2] | Median cfu (10th-90th percentile cfu) P. aeruginosa internalized per mg. lung tissue [1, 3] | Median cfu (10th-90th percentile cfu) P. aeruginosa total per mg. lung tissue [1, 2] | Median cfu (10th-90th percentile cfu) P. aeruginosa total per mg. lung tissue [1, 3] | Median cfu (10th-90th percentile cfu) P. aeruginosa internalized per mg. lung tissue [1, 4] | Median cfu (10th-90th percentile cfu) P. aeruginosa internalized per mg. lung tissue ([1]; listed as fourth extracellular domain peptide) | Median cfu (10th-90th percentile cfu) P. aeruginosa total per mg. lung tissue [1, 4] | Median cfu (10th-90th percentile cfu) P. aeruginosa total per mg. lung tissue ([1]; listed as fourth predicted extracellular domain)
GRIIASYDPDNKEER (listed as Homo Sapiens) [First domain] | 3.497 × 10^4 (3.751 × 10^3)^a cfu | 0 (0-278) cfu per mg lung tissue | virtually no internalized P. aeruginosa | 152,419 (37,860-519,612) cfu per mg lung tissue | ~1.5×10^5 cfu per mg lung tissue |  |  |  | 
LWLLGNTPLQDKGNSTHSRNNSYAVIITSTS (listed as Homo Sapiens) [Fourth domain, reference compound] | 7.3433 × 10^4 (9.124 × 10^3) cfu |  |  |  |  | 13,246 (3,578-49,558) cfu per mg lung tissue | > 10^4 cfu per mg lung tissue | 20,450 (4,000-61,008) cfu per mg lung tissue | ~2×10^4 cfu per mg lung tissue
